{"source": "paper PMC9065348", "about": "(Frontiers in Pharmacology, 2022)", "key": {"[1]": {"test": "Pharmacokinetics of LOS and EXP3174 in the hypertension rat model (LC-MS)", "type": "in vivo, Wistar rats", "conditions": "hypertensive rats (L-NAME); for AUC(0-inf) / AUC(0-t) / Cmax / MRT / Tmax / half-life: Wistar, rat, plasma, po, 10 mg/kg/day", "experimental": "All samples were centrifuged at 3,000 rpm for 10 min, and the upper plasma was collected for Liquid Chromatography Mass Spectrometry (LC-MS) analysis. The LOS and EXP3174 in rat serum were quantitatively determined by a validated LC-MS method. The LC-MS system contained a Q/Exactive Quadrupole/Electrostatic Field Track Well High Resolution Mass Spectrometer (Thermo Fisher Scientific, Waltham, MA, United States) and a Dionex Ultimate 3,000 High-pressure liquid chromatography (Dionex, Subsidiary, CA, United States) system equipped with an electro-spray ionization source. […] The mobile phase included 0.1% formic acid aqueous solution (C) and acetonitrile (D) at a flow rate of 0.3 ml/min. The proportion of phase B in the mobile phase was adjusted from 40 to 5% at 0-2 min, 5% at 2-4 min, 40% at 4-5 min. The parameters of mass spectrometry for each analyte were shown in Supplementary Figure S1 . The collected data were analyzed through Xcalibur 4.1 software. The serum drug concentration data in each sample were obtained by calculation. The pharmacokinetic parameters corresponding to each rat were calculated using the “non-compartmental model” of the “PK solution 2.0TM (Summit Research Services, United States)” pharmacokinetic software. The half-life (t 1/2 ), peak drug concentration (C max), peak time (T max), the area under the plasma concentration-time curve (AUC) from time zero to the time of the last measurable plasma concentration (AUC 0-t ), AUC from time zero to infinity (AUC 0-∞ ), mean residence time (MRT), clearance (CL), apparent volume of distribution (V d ), and relative bioavailability (Frel) were calculated."}, "[2]": {"test": "Pharmacokinetics of LOS and EXP3174 in non-hypertensive Wistar rats (LC-MS)", "type": "in vivo", "conditions": "rat, serum, po; Wistar rats without L-NAME; LOS 10 mg/kg/d ig alone (BLANK + LOS group)", "experimental": "All groups were treated for 2 weeks and the blood collection time and methods of serum management were the same as those mentioned above. The LOS and EXP3174 in rat serum were quantitatively determined by a validated LC-MS method. The LC-MS system contained a Q/Exactive Quadrupole/Electrostatic Field Track Well High Resolution Mass Spectrometer (Thermo Fisher Scientific, Waltham, MA, United States) and a Dionex Ultimate 3,000 High-pressure liquid chromatography (Dionex, Subsidiary, CA, United States) system equipped with an electro-spray ionization source. […] The mobile phase included 0.1% formic acid aqueous solution (C) and acetonitrile (D) at a flow rate of 0.3 ml/min. The proportion of phase B in the mobile phase was adjusted from 40 to 5% at 0–2 min, 5% at 2–4 min, 40% at 4–5 min. The parameters of mass spectrometry for each analyte were shown in Supplementary Figure S1 . The collected data were analyzed through Xcalibur 4.1 software. The serum drug concentration data in each sample were obtained by calculation. The pharmacokinetic parameters corresponding to each rat were calculated using the “non-compartmental model” of the “PK solution 2.0TM (Summit Research Services, United States)” pharmacokinetic software. The half-life (t 1/2 ), peak drug concentration (C max), peak time (T max), the area under the plasma concentration-time curve (AUC) from time zero to the time of the last measurable plasma concentration (AUC 0-t ), AUC from time zero to infinity (AUC 0-∞ ), mean residence time (MRT), clearance (CL), apparent volume of distribution (V d ), and relative bioavailability (Frel) were calculated."}, "[3]": {"parameters": "method as in Sica et al., 2005; Burnier and Wuerzner, 2011", "conditions": "ref Sica et al., 2005; Burnier and Wuerzner, 2011; cited from earlier work"}, "[4]": {"system": "CYP3A4", "parameters": "method as in Li et al. (2012)", "conditions": "Rat hepatic microsomes; ref Li et al. (2012); cited from earlier work"}, "[5]": {"system": "CYP3A4", "conditions": "Sprague-Dawley rats; ref Qin et al. (2013); cited from earlier work"}, "[6]": {"system": "P-gp", "conditions": "Sprague-Dawley rats; ref Qin et al. (2013); cited from earlier work"}, "[7]": {"target": "CYP3A4 (Homo sapiens, UniProt P08684)", "sequence (P08684 whole entry)": "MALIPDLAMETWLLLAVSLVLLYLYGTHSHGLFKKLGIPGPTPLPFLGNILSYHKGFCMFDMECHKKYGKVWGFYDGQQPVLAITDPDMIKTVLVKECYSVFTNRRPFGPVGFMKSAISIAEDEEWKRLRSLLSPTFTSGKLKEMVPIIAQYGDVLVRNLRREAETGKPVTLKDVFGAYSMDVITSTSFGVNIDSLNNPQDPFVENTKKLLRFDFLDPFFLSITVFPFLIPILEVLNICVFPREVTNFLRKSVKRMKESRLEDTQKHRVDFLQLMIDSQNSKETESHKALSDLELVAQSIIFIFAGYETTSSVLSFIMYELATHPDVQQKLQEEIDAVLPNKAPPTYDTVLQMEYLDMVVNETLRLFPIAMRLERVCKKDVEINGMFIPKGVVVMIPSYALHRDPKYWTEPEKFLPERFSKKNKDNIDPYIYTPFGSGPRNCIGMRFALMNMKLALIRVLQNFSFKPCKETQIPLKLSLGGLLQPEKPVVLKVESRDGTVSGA", "parameters": "method as in Wan et al. (2010)", "conditions": "HepG2; ref Wan et al. (2010); cited from earlier work"}, "[8]": {"system": "P-gp", "parameters": "method as in Wan et al. (2010)", "conditions": "HepG2; ref Wan et al. (2010); cited from earlier work"}, "[9]": {"conditions": "LOS 10 mg/kg/d ig + SMI 2 ml/kg/d tail vein (SMI-L+LOS group)"}, "[10]": {"conditions": "LOS 10 mg/kg/d ig + SMI 4 ml/kg/d tail vein (SMI-M+LOS group)"}, "[11]": {"conditions": "LOS 10 mg/kg/d ig + SMI 6 ml/kg/d tail vein (SMI-H+LOS group)"}, "[12]": {"conditions": "LOS 10 mg/kg/d ig alone (LOS group)"}}, "note": "Where two headings read alike, the source gives them in different places.", "data": [{"compound": "CCCCc1nc(Cl)c(C(=O)O)n1Cc1ccc(-c2ccccc2-c2nn[nH]n2)cc1", "note": "[EXP3174, losartan carboxylic acid]", "values": [{"measurement": "AUC(0-inf)", "setting": "[1]; [9]", "value": 1280, "unit": "ng·h/mL"}, {"measurement": "AUC(0-t)", "setting": "[1]; [9]", "value": 1180, "unit": "ng·h/mL"}, {"measurement": "Cmax", "setting": "[1]; [9]", "value": "133 ± 42.8", "unit": "ng/mL"}, {"measurement": "MRT", "setting": "[1]; [9]", "value": "9.5 ± 1.8", "unit": "h"}, {"measurement": "Tmax", "setting": "[1]; [9]", "value": "4.8 ± 1.1", "unit": "h"}, {"measurement": "half-life", "setting": "[1]; [9]", "value": "6.67 ± 1.34", "unit": "h"}, {"measurement": "AUC(0-inf)", "setting": "[1]; [10]", "value": 1500, "unit": "ng·h/mL"}, {"measurement": "AUC(0-t)", "setting": "[1]; [10]", "value": 1380, "unit": "ng·h/mL"}, {"measurement": "Cmax", "setting": "[1]; [10]", "value": "123 ± 44.6", "unit": "ng/mL"}, {"measurement": "MRT", "setting": "[1]; [10]", "value": "11.4 ± 1.62", "unit": "h"}, {"measurement": "Tmax", "setting": "[1]; [10]", "value": "5.33 ± 1.03", "unit": "h"}, {"measurement": "half-life", "setting": "[1]; [10]", "value": "6.59 ± 1.44", "unit": "h"}, {"measurement": "AUC(0-inf)", "setting": "[1]; [11]", "value": 1380, "unit": "ng·h/mL"}, {"measurement": "Cmax", "setting": "[1]; [11]", "value": "81.2 ± 8.14", "unit": "ng/mL"}, {"measurement": "MRT", "setting": "[1]; [11]", "value": "13.3 ± 2.66", "unit": "h"}, {"measurement": "Tmax", "setting": "[1]; [11]", "value": "6 ± 1.26", "unit": "h"}, {"measurement": "half-life", "setting": "[1]; [11]", "value": "7.31 ± 1.62", "unit": "h"}, {"measurement": "AUC(0-inf)", "setting": "[1]; [12]", "value": 1300, "unit": "ng·h/mL"}, {"measurement": "AUC(0-t)", "setting": "[1]; [12]", "value": 1160, "unit": "ng·h/mL"}, {"measurement": "Cmax", "setting": "[1]; [12]", "value": "119 ± 36.4", "unit": "ng/mL"}, {"measurement": "MRT", "setting": "[1]; [12]", "value": "11.2 ± 2.34", "unit": "h"}, {"measurement": "Tmax", "setting": "[1]; [12]", "value": "4.33 ± 0.82", "unit": "h"}, {"measurement": "half-life", "setting": "[1]; [12]", "value": "6.76 ± 1.45", "unit": "h"}, {"measurement": "CL", "setting": "[1]; [9]", "value": "23,408.16 ± 11,602.26 ml/h/kg"}, {"measurement": "Vd", "setting": "[1]; [9]", "value": "226,676.52 ± 129,635.61 ml/kg"}, {"measurement": "CL", "setting": "[1]; [10]", "value": "17,618.36 ± 4346.02 ml/h/kg"}, {"measurement": "Vd", "setting": "[1]; [10]", "value": "159,469.35 ± 65,037.84 ml/kg"}, {"measurement": "CL", "setting": "[1]; [11]", "value": "18,577.68 ± 3,249.85 ml/h/kg"}, {"measurement": "Vd", "setting": "[1]; [11]", "value": "188,473.60 ± 36,260.16 ml/kg"}, {"measurement": "CL", "setting": "[1]; [12]", "value": "19,842.49 ± 3,602.55 ml/h/kg"}, {"measurement": "Vd", "setting": "[1]; [12]", "value": "175,713.60 ± 57,295.84 ml/kg"}, {"measurement": "AUC(0-inf)", "setting": "[2]", "value": 1170, "unit": "ng·h/mL"}, {"measurement": "AUC(0-t)", "setting": "[2]", "value": 1020, "unit": "ng·h/mL"}, {"measurement": "Cmax", "setting": "[2]", "value": "115 ± 12.1", "unit": "ng/mL"}, {"measurement": "MRT", "setting": "[2]", "value": "9.77 ± 0.26", "unit": "h"}, {"measurement": "Tmax", "setting": "[2]", "value": "5.33 ± 1.03", "unit": "h"}, {"measurement": "half-life", "setting": "[2]", "value": "6.5 ± 1.52", "unit": "h"}, {"measurement": "antihypertensive potency relative to losartan", "setting": "[3]", "value": "10–40 times"}]}, {"compound": "COc1cc2c(c(OC)c1OC)-c1c(cc(OC)c(OC)c1OC)C[C@H](C)[C@H](C)C2", "note": "[Schisandrin A]", "values": [{"measurement": "Effects on CYP3A4", "setting": "[4]", "value": "Inhibition"}]}, {"compound": "COc1cc2c(c(OC)c1OC)-c1c(cc(OC)c(OC)c1OC)C[C@](C)(O)[C@@H](C)C2", "note": "[schisandrol A]", "values": [{"measurement": "Effects on CYP3A4", "setting": "[5]", "value": "Inhibition"}, {"measurement": "Effects on P-Gp", "setting": "[6]", "value": "Inhibition"}, {"measurement": "Effects on CYP3A4", "setting": "[7]", "value": "Inhibition"}, {"measurement": "Effects on P-Gp", "setting": "[8]", "value": "Inhibition"}]}]}
